Measured values taken from ChEMBL document CHEMBL3885881, “DrugMatrix”.

Species on record: Rattus norvegicus
Experiment: DrugMatrix - Regimen: Daily Repeat
Assay type: toxicity, organism-based, Sprague-Dawley
Set-up: regimen Daily Repeat, gender Male, age 6-8 weeks
Details: in vivo, po, 1200 mg/kg, route oral GAVAGE, dose level High, vehicle 100 % WATER; for ALANINE AMINOTRANSFERASE / ALBUMIN / ALKALINE PHOSPHATASE / ASPARTATE AMINOTRANSFERASE / BLOOD UREA NITROGEN / CARBON DIOXIDE / CHLORIDE / CHOLESTEROL / CREATINE PHOSPHOKINASE / CREATININE / GLUCOSE / LACTATE DEHYDROGENASE / LIPASE / PHOSPHORUS / POTASSIUM / SODIUM / TOTAL BILIRUBIN / TOTAL PROTEIN / URIC ACID: tissue Plasma
[1] = 120 h, tissue Blood, time 5 day

## COCCc1ccc(OCC(O)CNC(C)C)cc1 (configuration not stated) [METOPROLOL]
72 h, tissue Blood, time 3 day
  ABSOLUTE SEGMENTED NEUTROPHIL: 909.67 CELLS/uL
  BASOPHIL: 0%
  EOSINOPHIL: 2.33%
  ERYTHROCYTE COUNT: 5.22 x10E6/uL
  HEMATOCRIT: 33.73%
  HEMOGLOBIN: 12.8 G/DL
  LEUKOCYTE COUNT: 12.47 x10E3/uL
  LYMPHOCYTE: 90.33%
  MEAN CORPUSCULAR HEMOGLOBIN: 24.57 pg
  MEAN CORPUSCULAR HEMOGLOBIN CONCENTRATION: 37.93 G/DL
  MEAN CORPUSCULAR VOLUME: 64.7 fL
  MONOCYTE: 0%
  NEUTROPHIL: 7.33%
  NUCLEATED RED BLOOD CELLS: 0 /100WBC
  PLATELET COUNT: 1290.67 x10E3/uL
72 h, time 3 day
  ALANINE AMINOTRANSFERASE: 53.67 u/L
  ALBUMIN: 3.87 G/DL
  ALKALINE PHOSPHATASE: 394 u/L
  ASPARTATE AMINOTRANSFERASE: 71 u/L
  BLOOD UREA NITROGEN: 17.33 mg/dL
  CARBON DIOXIDE: 22.33 mmol/L
  CHLORIDE: 107.33 MEQ/L
  CHOLESTEROL: 61.67 mg/dL
  CREATINE PHOSPHOKINASE: 205.67 u/L
  CREATININE: 0.14 mg/dL
  GLUCOSE: 163.67 mg/dL
  LACTATE DEHYDROGENASE: 229 u/L
  LIPASE: 8 u/L
  PHOSPHORUS: 13.37 mg/dL
  POTASSIUM: 7.13 MEQ/L
  SODIUM: 143.6 MEQ/L
  TOTAL BILIRUBIN: 0.2 mg/dL
  TOTAL PROTEIN: 5.57 G/DL
  URIC ACID: 1.77 mg/dL
[1]
  ABSOLUTE BASOPHIL: 0 CELLS/uL
  ABSOLUTE EOSINOPHIL: 118 CELLS/uL
  ABSOLUTE LYMPHOCYTE: 10653.33 CELLS/uL
  ABSOLUTE MONOCYTE: 40.33 CELLS/uL
  ABSOLUTE SEGMENTED NEUTROPHIL: 1388.33 CELLS/uL
  BASOPHIL: 0%
  EOSINOPHIL: 1%
  ERYTHROCYTE COUNT: 5.92 x10E6/uL
  HEMATOCRIT: 35.9%
  HEMOGLOBIN: 13.47 G/DL
  LEUKOCYTE COUNT: 12.2 x10E3/uL
  LYMPHOCYTE: 87.33%
  MEAN CORPUSCULAR HEMOGLOBIN: 22.77 pg
  MEAN CORPUSCULAR HEMOGLOBIN CONCENTRATION: 37.5 G/DL
  MEAN CORPUSCULAR VOLUME: 60.63 fL
  MONOCYTE: 0.33%
  NEUTROPHIL: 11.33%
  NUCLEATED RED BLOOD CELLS: 0 /100WBC
  PLATELET COUNT: 1269 x10E3/uL
120 h, time 5 day
  ALANINE AMINOTRANSFERASE: 41.67 u/L
  ALBUMIN: 4 G/DL
  ALKALINE PHOSPHATASE: 311.67 u/L
  ASPARTATE AMINOTRANSFERASE: 79 u/L
  BLOOD UREA NITROGEN: 16 mg/dL
  CARBON DIOXIDE: 25 mmol/L
  CHLORIDE: 102.33 MEQ/L
  CHOLESTEROL: 50.67 mg/dL
  CREATINE PHOSPHOKINASE: 364.33 u/L
  CREATININE: 0.21 mg/dL
  GLUCOSE: 161.33 mg/dL
  LACTATE DEHYDROGENASE: 430 u/L
  LIPASE: 8 u/L
  PHOSPHORUS: 11.67 mg/dL
  POTASSIUM: 6.24 MEQ/L
  SODIUM: 141.53 MEQ/L
  TOTAL BILIRUBIN: 0.2 mg/dL
  TOTAL PROTEIN: 5.6 G/DL
  URIC ACID: 1.73 mg/dL
